The values below are quoted from earlier work in patent publication US20230404077A1, “METHODS AND FORMULATIONS FOR CONTROLLING FLEA INFESTATIONS” (EctoGuard, LLC, priority 2022, published 2023).

Data set [1] has as its system fleas. As to conditions: systemic / administered orally.
In data set [2] the test system is fleas. Particulars: cats, topical.
Data set [3] concerns fleas. As to conditions: cats.

Consider spinetoram, for which the “activity relative to spinosad” value in the data set on fleas [1] was 5.5 times. In addition, the “topically active dose, corresponding extrapolated value” in the data set on fleas [2] is “around 10 mg/kg”.

spinosad: the “commercial oral dose for effective control (≥90% mortality)” value with fleas [3] was 45 to 90 mg/kg.
